Laboratory results taken from US20120083522A1, “MODULATION OF INFLAMMATORY RESPONSES BY FACTOR XI” (Isis Pharmaceuitcals, inc., priority 2009, published 2012).
In the oligonucleotide strings, read from the 5' end, every base follows the letter of its sugar. An asterisk marks phosphorothioate; unmarked linkages are phosphodiester. Other units and linkages are bracketed, terminal groups are in braces. A string of capitals states the bases alone. e = 2'-O-(2-methoxyethyl) (MOE); [5mC] = 5-methylcytosine; d = 2'-deoxy (DNA)

Columns and labels:
Type in all cases: in vivo
[1] = Cynomolgus monkeys: body and organ weights (Example 29); settings: for Kidney weight / Liver weight / Spleen weight: after euthanasia; for Body weight: escalating doses 5, 10, 25 mg/kg s.c.
Method: (§1) Groups, each consisting of two male and three female monkeys, were injected subcutaneously with ISIS 416838, ISIS 416850, ISIS 416858, ISIS 416864, or ISIS 417002 in escalating doses. Antisense oligonucleotide was administered to the monkeys at 5 mg/kg three times per a week for week 1; 5 mg/kg twice per week for weeks 2 and 3; 10 mg/kg three times per week for week 4; 10 mg/kg twice per week for weeks 5 and 6; 25 mg/kg three times per week for week 7; and 25 mg/kg twice per week for weeks 8, 9, 10, 11, and 12. One control group, consisting of two male and three female monkeys, was injected subcutaneously with PBS according to the same dosing regimen. An additional experimental group, consisting of two male and three female monkeys, was injected subcutaneously with ISIS 416850 in a chronic, lower dose regimen. Antisense oligonucleotide was administered to the monkeys at 5 mg/kg three times per week for week 1; 5 mg/kg twice per week for week 2 and 3; 10 mg/kg three times per week for week 4; and 10 mg/kg twice per week for weeks 5 to 12. Body weights were measured weekly. Blood samples were collected 14 days and 5 days before the start of treatment and subsequently once per week for Factor XI protein activity analysis in plasma and measurement of various hematologic factors. On day 85, the monkeys were euthanized by exsanguination while under deep anesthesia, and organs harvested for further analysis.
Body weights were taken once weekly throughout the dosing regimen. […] Organ weights were taken after the animals were euthanized and livers, kidneys and spleens were harvested and weighed. […] The ISIS oligonucleotide, ISIS 416850, given with the chronic dose regimen is distinguished from the other oligonucleotides with an asterisk (*).

Factor XI protein = assay: Cynomolgus monkeys: plasma Factor XI protein ELISA (Example 29); settings: escalating doses 5, 10, 25 mg/kg s.c.
Method: as §1
Plasma samples from all monkey groups taken on different days were analyzed by a sandwich-style ELISA assay (Affinity Biologicals Inc.) using an affinity-purified polyclonal anti-Factor XI antibody as the capture antibody and a peroxidase-conjugated polyclonal anti-Factor XI antibody as the detecting antibody. Monkey plasma was diluted 1:50 for the assay. Peroxidase activity was expressed by incubation with the substrate o-phenylenediamine. The color produced was quantified using a microplate reader at 490 nm and was considered to be proportional to the concentration of Factor XI in the samples.
The results are presented in Table 122, expressed as percentage reduction relative to that of the PBS control.

[2] = Cynomolgus monkeys: hematology assays (Example 29)
Method: as §1
The ISIS oligonucleotide, ISIS 416850, given with the chronic dose regimen is distinguished from the other oligonucleotides with an asterisk (*).

ISIS 416838: gapmer of Table 6 (antisense eG*e[5mC]*eA*eA*e[5mC]*d[5mC]*dG*dG*dG*dA*dT*dG*dA*dT*dG*eA*eG*eT*eG*e[5mC])
Kidney weight [1]: 12 g
Liver weight [1]: 63 g
Spleen weight [1]: 5 g
Body weight ([1]; day 1): 2720 g
Body weight ([1]; day 8): 2592 g
Body weight ([1]; day 15): 2642 g
Body weight ([1]; day 22): 2702 g
Body weight ([1]; day 29): 2689 g
Body weight ([1]; day 36): 2708 g
Body weight ([1]; day 43): 2700 g
Body weight ([1]; day 50): 2731 g
Body weight ([1]; day 57): 2737 g
Body weight ([1]; day 64): 2746 g
Body weight ([1]; day 71): 2869 g
Body weight ([1]; day 78): 2766 g
Inhibition of Factor XI protein relative to the PBS control (Factor XI protein; day 8): 3%
Inhibition of Factor XI protein relative to the PBS control (Factor XI protein; day 15): 4%
Inhibition of Factor XI protein relative to the PBS control (Factor XI protein; day 22): 5%
Inhibition of Factor XI protein relative to the PBS control (Factor XI protein; day 29): 8%
Inhibition of Factor XI protein relative to the PBS control (Factor XI protein; day 36): 11%
Inhibition of Factor XI protein relative to the PBS control (Factor XI protein; day 43): 5%
Inhibition of Factor XI protein relative to the PBS control (Factor XI protein; day 50): 8%
Inhibition of Factor XI protein relative to the PBS control (Factor XI protein; day 57): 10%
Inhibition of Factor XI protein relative to the PBS control (Factor XI protein; day 64): 11%
Inhibition of Factor XI protein relative to the PBS control (Factor XI protein; day 71): 12%
Inhibition of Factor XI protein relative to the PBS control (Factor XI protein; day 78): 10%
Inhibition of Factor XI protein relative to the PBS control (Factor XI protein; day 85): 10%
Inhibition of Factor XI protein relative to the PBS control (Factor XI protein; day −5 (before treatment)): 0%
Inhibition of Factor XI protein relative to the PBS control (Factor XI protein; day −14 (before treatment)): 0%
platelet count ([2]; day 8): 387000 µL⁻¹
platelet count ([2]; day 15): 387000 µL⁻¹
platelet count ([2]; day 22): 319000 µL⁻¹
platelet count ([2]; day 29): 337000 µL⁻¹
platelet count ([2]; day 36): 370000 µL⁻¹
platelet count ([2]; day 43): 365000 µL⁻¹
platelet count ([2]; day 50): 372000 µL⁻¹
platelet count ([2]; day 57): 371000 µL⁻¹
platelet count ([2]; day 64): 358000 µL⁻¹
platelet count ([2]; day 71): 365000 µL⁻¹
platelet count ([2]; day 78): 348000 µL⁻¹
platelet count ([2]; day 85): 344000 µL⁻¹
platelet count ([2]; day −5): 425000 µL⁻¹
platelet count ([2]; day −14): 377000 µL⁻¹

ISIS 416864: gapmer of Table 8 (antisense eG*eG*e[5mC]*eA*eG*d[5mC]*dG*dG*dA*d[5mC]*dG*dG*d[5mC]*dA*dT*eT*eG*eG*eT*eG)
Kidney weight [1]: 14 g
Liver weight [1]: 53 g
Spleen weight [1]: 5 g
Body weight ([1]; day 1): 2890 g
Body weight ([1]; day 8): 2784 g
Body weight ([1]; day 15): 2817 g
Body weight ([1]; day 22): 2857 g
Body weight ([1]; day 29): 2863 g
Body weight ([1]; day 36): 3327 g
Body weight ([1]; day 43): 3355 g
Body weight ([1]; day 50): 3408 g
Body weight ([1]; day 57): 3387 g
Body weight ([1]; day 64): 3384 g
Body weight ([1]; day 71): 2942 g
Body weight ([1]; day 78): 2822 g
Inhibition of Factor XI protein relative to the PBS control (Factor XI protein; day 8): 7%
Inhibition of Factor XI protein relative to the PBS control (Factor XI protein; day 15): 9%
Inhibition of Factor XI protein relative to the PBS control (Factor XI protein; day 22): 7%
Inhibition of Factor XI protein relative to the PBS control (Factor XI protein; day 29): 10%
Inhibition of Factor XI protein relative to the PBS control (Factor XI protein; day 36): 9%
Inhibition of Factor XI protein relative to the PBS control (Factor XI protein; day 43): 9%
Inhibition of Factor XI protein relative to the PBS control (Factor XI protein; day 50): 10%
Inhibition of Factor XI protein relative to the PBS control (Factor XI protein; day 57): 7%
Inhibition of Factor XI protein relative to the PBS control (Factor XI protein; day 64): 5%
Inhibition of Factor XI protein relative to the PBS control (Factor XI protein; day 71): 10%
Inhibition of Factor XI protein relative to the PBS control (Factor XI protein; day 78): 9%
Inhibition of Factor XI protein relative to the PBS control (Factor XI protein; day 85): 8%
Inhibition of Factor XI protein relative to the PBS control (Factor XI protein; day −5 (before treatment)): 5%
Inhibition of Factor XI protein relative to the PBS control (Factor XI protein; day −14 (before treatment)): 0%
platelet count ([2]; day 8): 438000 µL⁻¹
platelet count ([2]; day 15): 439000 µL⁻¹
platelet count ([2]; day 22): 364000 µL⁻¹
platelet count ([2]; day 29): 397000 µL⁻¹
platelet count ([2]; day 36): 428000 µL⁻¹
platelet count ([2]; day 43): 351000 µL⁻¹
platelet count ([2]; day 50): 419000 µL⁻¹
platelet count ([2]; day 57): 409000 µL⁻¹
platelet count ([2]; day 64): 383000 µL⁻¹
platelet count ([2]; day 71): 394000 µL⁻¹
platelet count ([2]; day 78): 366000 µL⁻¹
platelet count ([2]; day 85): 387000 µL⁻¹
platelet count ([2]; day −5): 456000 µL⁻¹
platelet count ([2]; day −14): 434000 µL⁻¹

ISIS 417002: gapmer of Table 8 (antisense eG*eG*dT*dG*d[5mC]*dA*d[5mC]*dA*dG*dT*dT*dT*d[5mC]*dT*dG*eG*e[5mC]*eA*eG*eG)
Kidney weight [1]: 15 g
Liver weight [1]: 51 g
Spleen weight [1]: 5 g
Body weight ([1]; day 1): 2640 g
Body weight ([1]; day 8): 2523 g
Body weight ([1]; day 15): 2571 g
Body weight ([1]; day 22): 2617 g
Body weight ([1]; day 29): 2622 g
Body weight ([1]; day 36): 2631 g
Body weight ([1]; day 43): 2630 g
Body weight ([1]; day 50): 2652 g
Body weight ([1]; day 57): 2654 g
Body weight ([1]; day 64): 2598 g
Body weight ([1]; day 71): 2727 g
Body weight ([1]; day 78): 2570 g
Inhibition of Factor XI protein relative to the PBS control (Factor XI protein; day 8): 0%
Inhibition of Factor XI protein relative to the PBS control (Factor XI protein; day 15): 4%
Inhibition of Factor XI protein relative to the PBS control (Factor XI protein; day 22): 2%
Inhibition of Factor XI protein relative to the PBS control (Factor XI protein; day 29): 8%
Inhibition of Factor XI protein relative to the PBS control (Factor XI protein; day 36): 8%
Inhibition of Factor XI protein relative to the PBS control (Factor XI protein; day 43): 9%
Inhibition of Factor XI protein relative to the PBS control (Factor XI protein; day 50): 13%
Inhibition of Factor XI protein relative to the PBS control (Factor XI protein; day 57): 24%
Inhibition of Factor XI protein relative to the PBS control (Factor XI protein; day 64): 26%
Inhibition of Factor XI protein relative to the PBS control (Factor XI protein; day 71): 30%
Inhibition of Factor XI protein relative to the PBS control (Factor XI protein; day 78): 22%
Inhibition of Factor XI protein relative to the PBS control (Factor XI protein; day 85): 23%
Inhibition of Factor XI protein relative to the PBS control (Factor XI protein; day −5 (before treatment)): 0%
Inhibition of Factor XI protein relative to the PBS control (Factor XI protein; day −14 (before treatment)): 0%
platelet count ([2]; day 8): 435000 µL⁻¹
platelet count ([2]; day 15): 410000 µL⁻¹
platelet count ([2]; day 22): 377000 µL⁻¹
platelet count ([2]; day 29): 410000 µL⁻¹
platelet count ([2]; day 36): 415000 µL⁻¹
platelet count ([2]; day 43): 393000 µL⁻¹
platelet count ([2]; day 50): 389000 µL⁻¹
platelet count ([2]; day 57): 403000 µL⁻¹
platelet count ([2]; day 64): 436000 µL⁻¹
platelet count ([2]; day 71): 490000 µL⁻¹
platelet count ([2]; day 78): 432000 µL⁻¹
platelet count ([2]; day 85): 418000 µL⁻¹
platelet count ([2]; day −5): 466000 µL⁻¹
platelet count ([2]; day −14): 442000 µL⁻¹
